The values that follow come from patent US20220347167A1, “A NEW TREATMENT FOR MEIBOMIAN GLAND DYSFUNCTION” (The Schepens Eye Research Institute, Inc., priority 2019, published 2022).

This experiment has as its system HIF1α. The experiment in a line: HIF1α expression in CoCl2-stimulated HepG2 cells (positive control for HIF1α antibody). It is filed as cell-based, human. To be noted: 4 hours of CoCl2 treatment. The procedure: After culture in DMEM/F12+10% FBS under normoxic conditions for 7 days, cells were exposed to 21% O2, 1% O2 and 10 μM Roxa, alone or in combination, for an additional 6 hours. The cells were lysed in 2× Laemmli sample buffer (Bio-Rad Laboratories, Hercules, Calif.) and sonicated to extract nuclear protein [Andersen et al. (2002) Current biology: CB 12:1-11]. Human hepatocellular carcinoma cell lines (HepG2 cells) (America Type Culture Collection, Manassas, Va.), which express high concentration of HIF1α under CoCl2 stimulation for 4 hours [Yoo et al. (2014) Journal of cellular biochemistry 115:1147-1158], were used as a positive control for HIF1α antibody. The CoCl2 was purchased from Sigma-Aldrich Corp (St. Louis, Mo.). Cell lysates were then evaluated for HIF1α (1:1000, BD Biosciences, San Jose, Calif.) or β-actin (1:10,000, Cell Signaling Technology) expression. Secondary antibodies were horseradish peroxidase (HRP)-conjugated goat anti-rabbit or goat anti-mouse IgG (both 1:5000, Sigma-Aldrich). Densitometry was performed using ImageJ (at the World Wide Web website of rsb.info.nih.gov/ij).

Turning to `[Cl-].[Cl-].[Co+2]` [CoCl2, cobalt (II) chloride], the “HIF1α protein in HepG2 cell lysates” value is recorded as “substantial amounts of HIF1α protein”.
